In patent US11246961B2, “Engineered scaffolds for vascularized tissue repair” (The Regents of the University of California, priority 2016, dated 2022):
Entries after “also recorded” stand apart in the source; their conditions may differ.

What was measured:
[1] = test system: platelets; assay: flow cytometry ligand-cell binding, platelets; settings: biotinylated ligand 1 μM
Experimental: (§1) FIG. 10 presents flow cytometry data from an assay of binding affinity of LXW7 and GRGD (SEQ ID NO: 1) to different cell types. Tests included EPCs/ECs from different sources, including HECFCs (A), HCAECs (B), HMVECs (C), and THP-1 monocytes (D), Platelets (E), as well as K562 cells engineered to highly express αvβ3 (αvβ3-K562, F), and αIIbβ3 (αIIbβ3-K562, G). Cells were incubated with the LXW7-bio, GRGD-bio (SEQ ID NO: 1), or D-Biotin peptide and subsequently incubated with streptavidin-phycoerythrin. Flow cytometry analysis was performed to determine the binding affinity of the ligands. Samples treated with D-biotin were used as negative controls.
(§2) LXW7-bio (1 μM) was incubated with 3×10^5 HECFCs, HCAECs, HMVECs, αvβ3-K562 and αIIbβ3-K562 cells and THP-1 monocytes and 1×10^8 platelets in binding buffer (HEPES containing 10% FBS) on ice for 30 minutes. The samples were washed three times with DPBS containing 1% FBS and incubated with 2 μg/ml of streptavidin-phycoerythrin on ice for 30 minutes and then washed with DPBS. Samples were analyzed on a BD Fortessa LSR Cell Analyzer and further data analysis and gating were performed using FlowJo software (Treestar, Inc.).

[2] = test system: THP-1 monocytes; assay: attachment assay on ligand treated culture surfaces, THP-1 monocytes; type: cell-based; settings: 16 hours
Text: Ligands LXW7, LXY30, and LLP2A were synthesized as in U.S. Pat. No. 9,073,974. Biotinylated LXW7 (LXW7-bio) and biotinylated GRGD (GRGD-bio) (SEQ ID NO: 1) were synthesized using established solid phase peptide synthesis protocols (Xiao et al. (2010) Mol Cancer Therapeutics 9:2714). Peptide-bio was designed to have biotin attached to the side chain of Lys, with two hydrophilic linkers between peptide and Lys (biotin). To modify culture surface with ligands, target culture wells in a 24-well plate were coated with 500 μL of 20 μg/mL Avidin (Thermo Fisher Scientific), and incubated for 1 hour at 37° C. Avidin coated wells were rinsed three times with DPBS and were treated with 500 μL molar equivalents (2 μM) of D-biotin (Thermo Fisher Scientific), LXW7-bio, or GRGD-bio (SEQ ID NO: 1). After 1 hour, the wells were washed three times with DPBS and blocked with 1% bovine serum albumin (BSA; Thermo Fisher Scientific) for 1 hour. After the wells were rinsed three times with DPBS, for cell attachment assay, 5×10^4 HCAECs and THP-1 monocytes suspended in the respective maintenance medium were added to the wells and incubated for 10 minutes or 16 hours at 37° C., 5% CO2, respectively. […] Five images were randomly taken from each sample and quantification of images was performed using the Image J software (NIH).

[3] = test system: HMVECs; assay: on-bead whole cell binding assay, HMVECs; type: cell-based, human; settings: 10 minutes, 30 minutes or 2 hours
Text: Human coronary artery endothelial cells (HCAECs) were purchased from ATCC. Human cardiac microvascular endothelial cells (HMVECs) were purchased from Lonza. THP-1 monocytes were obtained from Dr. Pamela Lein (University of California, Davis). The myeloid leukemia K562 cells that have been transfected with human integrin αvβ3 gene (αvβ3-K562 cells) were provided by Dr. Yoshikazu Takada and the K562 cells transfected with human integrin αIIbβ3 gene (αIIb3-K562 cells) were provided Dr. Jennifer Cochran (Stanford University)
(§3) HECFCs, HCAECs, HMVECs and THP-1 monocytes were cultured in their respective growth medium as described in Example 1. For cell bead-binding assay, 6×10^5 HECFCs, HCAECs, HMVECs or THP-1 monocytes in 2 mL of their respective culture medium were added to an ultra-low attachment 35-mm petri dish (Corning Incorporated) followed by resin beads (Lam et al. (1991) Nature 354:82). The dishes were incubated in a shaking incubator at 37° C., 5% CO2 for various time points at 40 rpm. For platelet bead-binding assay, the platelets isolated as described in Example 1 were added to an ultra-low attachment 35-mm petri dish and incubated with the resin beads in the shaking incubator as described for the cell-bead binding assy. Phase contrast images were taken at different time points using an Olympus IX81 microscope. […]

[4] = test system: platelets; assay: platelet-bead binding assay; type: cell-based; settings: 10 minutes, 30 minutes or 2 hours
Experimental: HECFCs, HCAECs and HMVECs were cultured in EC expansion medium EGM-2 and THP-1 monocytes were cultured in RPMI Medium 1640 (Gibco) supplemented with 10% fetal bovine serum (FBS, Hyclone) and 0.05 mM 2-mercaptoethanol (Sigma). αvβ3-K562 cells and αIIbβ3-K562 cells were cultured in RPMI Medium 1640 plus 10% FBS. Platelet-rich plasma (PRP) was obtained from UC Davis Medical Center (Sacramento, Calif.). Fresh PRP (260×10^3 platelets/μL) was centrifuged, and the pellets were resuspended in Dulbecco's Phosphate Buffer Saline (DPBS; Hyclone) containing 2 mM CaCl2) and MgCl2 to a final concentration of 1×10^8 platelets/mL.
as §3, with “assy.” for “assy. Phase contrast images were taken at different time points using an Olympus IX81 microscope.”

[5] = target: T1, integrin αvβ3 (Homo sapiens, UniProt P05106+P06756); assay: flow cytometry ligand-cell binding, αvβ3-K562 cells; settings: K562 cells highly expressing integrin αvβ3
T1 construct: expressed in transfected cells; host or cells: K562 myeloid leukemia cells (αvβ3-K562), provided by Dr. Yoshikazu Takada
T1 sequence (P06756 31-889 limits assumed): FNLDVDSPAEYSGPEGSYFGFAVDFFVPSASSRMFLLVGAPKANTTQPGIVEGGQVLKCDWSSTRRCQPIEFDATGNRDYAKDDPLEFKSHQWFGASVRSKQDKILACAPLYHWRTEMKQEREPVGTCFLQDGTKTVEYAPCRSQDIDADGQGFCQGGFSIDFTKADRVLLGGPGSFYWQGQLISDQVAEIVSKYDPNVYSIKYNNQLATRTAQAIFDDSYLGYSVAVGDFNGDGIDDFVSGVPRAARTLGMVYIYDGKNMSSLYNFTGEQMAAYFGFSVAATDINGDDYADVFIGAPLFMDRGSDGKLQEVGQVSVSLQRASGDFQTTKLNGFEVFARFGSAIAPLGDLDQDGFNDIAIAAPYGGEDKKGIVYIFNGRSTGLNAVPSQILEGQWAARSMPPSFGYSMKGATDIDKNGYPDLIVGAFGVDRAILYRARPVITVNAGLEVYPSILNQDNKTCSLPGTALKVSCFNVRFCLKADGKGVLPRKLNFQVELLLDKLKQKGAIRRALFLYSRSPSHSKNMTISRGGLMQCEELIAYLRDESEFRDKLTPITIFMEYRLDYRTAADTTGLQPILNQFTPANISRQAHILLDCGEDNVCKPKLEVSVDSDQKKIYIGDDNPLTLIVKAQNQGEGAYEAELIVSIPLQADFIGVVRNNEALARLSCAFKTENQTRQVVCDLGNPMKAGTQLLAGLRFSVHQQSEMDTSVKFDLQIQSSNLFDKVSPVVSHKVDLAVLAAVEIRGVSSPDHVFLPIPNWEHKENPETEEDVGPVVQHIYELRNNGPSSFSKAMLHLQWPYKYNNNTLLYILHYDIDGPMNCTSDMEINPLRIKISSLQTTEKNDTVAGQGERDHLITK
T1 sequence (P06756 891-1048 partner limits assumed): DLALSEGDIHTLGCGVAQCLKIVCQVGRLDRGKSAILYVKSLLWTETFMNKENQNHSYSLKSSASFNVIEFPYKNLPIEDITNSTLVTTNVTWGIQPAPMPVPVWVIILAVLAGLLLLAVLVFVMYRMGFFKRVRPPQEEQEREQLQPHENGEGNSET
T1 sequence (P05106 27-788): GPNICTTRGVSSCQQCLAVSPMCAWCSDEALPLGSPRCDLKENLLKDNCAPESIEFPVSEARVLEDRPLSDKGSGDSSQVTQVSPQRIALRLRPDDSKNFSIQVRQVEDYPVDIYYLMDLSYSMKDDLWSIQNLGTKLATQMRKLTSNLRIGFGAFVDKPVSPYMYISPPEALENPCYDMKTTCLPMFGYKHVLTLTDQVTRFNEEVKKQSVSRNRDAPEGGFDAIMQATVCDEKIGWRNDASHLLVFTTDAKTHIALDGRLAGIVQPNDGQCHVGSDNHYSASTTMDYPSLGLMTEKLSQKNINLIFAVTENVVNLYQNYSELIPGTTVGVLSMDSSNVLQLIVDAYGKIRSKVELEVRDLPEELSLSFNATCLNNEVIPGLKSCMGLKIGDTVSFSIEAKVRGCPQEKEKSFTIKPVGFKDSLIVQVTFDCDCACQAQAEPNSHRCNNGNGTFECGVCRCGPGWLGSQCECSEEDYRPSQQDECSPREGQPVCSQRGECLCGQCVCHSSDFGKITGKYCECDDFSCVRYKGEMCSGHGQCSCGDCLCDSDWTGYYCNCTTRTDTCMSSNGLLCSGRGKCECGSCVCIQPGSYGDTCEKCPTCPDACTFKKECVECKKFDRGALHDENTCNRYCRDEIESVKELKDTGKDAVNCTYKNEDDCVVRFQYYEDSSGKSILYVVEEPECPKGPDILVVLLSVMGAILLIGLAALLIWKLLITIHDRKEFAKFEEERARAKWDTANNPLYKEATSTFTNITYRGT
Experimental: as §1
Human coronary artery endothelial cells (HCAECs) were purchased from ATCC. Human cardiac microvascular endothelial cells (HMVECs) were purchased from Lonza. THP-1 monocytes were obtained from Dr. Pamela Lein (University of California, Davis). […]
as §2, with “The samples were washed three times with DPBS containing 1% FBS and incubated with 2 μg/ml of streptavidin-phycoerythrin on ice for 30 minutes and then washed with DPBS.” left out

binding affinity to αvβ3-K562 cells by flow cytometry [5]: higher binding affinity than GRGD
Substance: cGRGDdvc [LXW7]
binding affinity with platelets by flow cytometry [1]: very low binding affinity with platelets | THP-1 monocyte attachment on ligand treated surface [2]: did not support THP-1 monocyte attachment | attachment of HMVECs to beads displaying LXW7 [3]: efficiently supported attachment of EPCs/ECs from different sources; also recorded: efficiently supported EPC/EC attachment | attachment of platelets to beads displaying LXW7 [4]: did not support effective attachment
